How the values were obtained:
[1] = molecular target: T1, 17β-hydroxysteroid dehydrogenase type 10 (HSD10) (Homo sapiens, UniProt Q99714); assay: (-)-CHANA fluorogenic probe turnover in HSD10-overexpressing HEK293 cells; assay type: cell-based
T1 construct: gene HSD17B10; HSD10 overexpressed in HEK293 cells
T1 sequence (Q99714 2-261): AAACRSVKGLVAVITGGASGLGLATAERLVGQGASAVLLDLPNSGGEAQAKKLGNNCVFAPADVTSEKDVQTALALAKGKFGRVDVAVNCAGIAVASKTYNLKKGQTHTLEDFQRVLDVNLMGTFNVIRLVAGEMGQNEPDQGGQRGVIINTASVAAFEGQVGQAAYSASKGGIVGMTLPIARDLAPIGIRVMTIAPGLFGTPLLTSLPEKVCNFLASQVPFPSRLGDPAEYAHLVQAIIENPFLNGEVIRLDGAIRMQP

[2] = molecular target: amyloid-β 42 Aβ1-42 (Homo sapiens) (UniProt P05067); settings: cited from earlier work
Sequence of amyloid-β 42 Aβ1-42 (Homo sapiens) (P05067 1-42): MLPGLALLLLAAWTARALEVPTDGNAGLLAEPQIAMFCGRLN

IC50 [1] [nM]	Compound	Kd [2] [nM]
190	O=C(C(c1ccccc1)n1cnc2[nH]ncc2c1=S)N1CCCCCC1 (stereo not drawn) [AG18051]	
4260	COc1ccc2nc(NC(=O)c3ccc(O)c(Cl)c3)sc2c1 [compound 34, inhibitor 34]	
	HSD10 (from UniProt Q99714)	55.8
